We go through six molecules from US20260028352A1, “MACROCYCLIC IMIDAZO [1,2-B] PYRIDAZINE DERIVATIVE, PREPARATION METHOD THEREFOR, AND USE THEREOF” (SUZHOU LANGRUI BIOPHARMACEUTICAL CO., LTD., priority 2022, published 2026).

Read-outs that look alike come from different tables or passages of the source.

The subject of series [1] is Ba/F3-TPM3-NTRK1-WT cells. Briefly: Growth inhibition of Ba/F3-TPM3-NTRK1-WT cells (Cell Titer-Glo). It is filed as cell-based. The note with it: 72 hours, CTG; read-out: inhibitory activity IC50 Ba/F3-TPM3-NTRK1-WT. The procedure, abridged: (§1)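 Ba/F3 cells were exposed for 72 hours to serially DMSO-diluted compound at a top final concentration of 10 μM. Viability was read by Cell Titer-Glo luminescence after the plate equilibrated 30 min at room temperature and was then shaken 1 hour in the dark at room temperature.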
In general terms: In ATP-based viability assays light output follows the ATP content of the culture.

Another series concerns the target TRKA^WT kinase (Homo sapiens (Human), UniProt P04629). The series is described as follows: Inhibitory activity against TRKA WT kinase (Caliper mobility shift). The note with it: in vitro kinase assay. Type of series: biochemical. The essentials: (§2)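 Kinase preincubated 10 min at room temperature with compound (10-point 3-fold series from 1000 nM), then reaction started with ATP and Kinase Substrate 22. Substrate conversion read by Caliper mobility shift; IC50 from variable-slope log(inhibitor)–response fit of % inhibition versus no-enzyme and no-compound controls.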

The conditions of series [2]: ether bond.
Series [3] concerns Ba/F3-TPM3-NTRK1-G667C cells. The series is described as follows: Growth inhibition of Ba/F3-TPM3-NTRK1-G667C cells (Cell Titer-Glo). Type of series: cell-based. The note with it: for IC50: 72 hours, CTG, read-out: inhibitory activity IC50 Ba/F3-TPM3-NTRK1-G667C. The procedure, abridged: as §1
The target in the next series is TRKA^F589L kinase (Homo sapiens (Human), UniProt P04629, F589L). The series is described as follows: Inhibitory activity against TRKA(F589L) kinase (Caliper mobility shift). The note with it: in vitro kinase assay. Type of series: biochemical. The essentials:
as §2

For series [4], the system named is Ba/F3-TPM3-NTRK1-G595R cells. Briefly: Growth inhibition of Ba/F3-TPM3-NTRK1-G595R cells (Cell Titer-Glo). Type of series: cell-based. The note with it: 72 hours, CTG; read-out: inhibitory activity IC50 Ba/F3-TPM3-NTRK1-G595R. The procedure, abridged:
as §1

Sequence of TRKA^WT kinase (P04629 33-796): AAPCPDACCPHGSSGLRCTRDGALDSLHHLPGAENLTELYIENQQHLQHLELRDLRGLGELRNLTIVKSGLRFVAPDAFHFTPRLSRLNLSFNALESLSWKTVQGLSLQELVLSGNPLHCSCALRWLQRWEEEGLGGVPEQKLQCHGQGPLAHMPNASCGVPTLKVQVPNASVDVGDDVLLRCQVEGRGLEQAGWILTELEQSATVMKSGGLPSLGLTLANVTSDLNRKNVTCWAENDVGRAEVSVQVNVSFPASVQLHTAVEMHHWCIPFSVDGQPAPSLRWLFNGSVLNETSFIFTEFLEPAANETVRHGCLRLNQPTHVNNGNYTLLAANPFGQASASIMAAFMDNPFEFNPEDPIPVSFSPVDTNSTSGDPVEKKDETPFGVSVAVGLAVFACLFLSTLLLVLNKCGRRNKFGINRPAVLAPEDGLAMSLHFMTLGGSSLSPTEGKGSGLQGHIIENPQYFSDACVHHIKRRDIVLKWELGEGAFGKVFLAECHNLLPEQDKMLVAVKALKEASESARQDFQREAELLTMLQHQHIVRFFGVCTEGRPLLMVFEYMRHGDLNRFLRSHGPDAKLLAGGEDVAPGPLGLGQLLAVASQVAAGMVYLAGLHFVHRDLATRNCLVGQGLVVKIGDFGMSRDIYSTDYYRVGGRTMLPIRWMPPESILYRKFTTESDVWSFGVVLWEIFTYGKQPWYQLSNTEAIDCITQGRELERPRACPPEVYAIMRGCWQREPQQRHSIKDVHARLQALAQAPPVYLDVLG
Sequence of TRKA^F589L kinase (P04629 33-796 F589L): as the sequence (P04629 33-796) above, with F557L counted along it

As to `CC1Nc2ccc3ncc(n3n2)-c2cc(ccn2)COc2c(F)cc(F)cc21` (stereo not shown) [Example I-2, (E)-5^4,5^6-difluoro-6-methyl-4-oxa-7-aza-1(3,6)-imidazo[1,2-b]pyridazine-2(2,4)-pyridina-5(1,2)-benzenacycloheptaphane], the IC50 in series [1] came out at 0.0248 µM; at TRKA^WT kinase, 0.00259 µM; in series [3], 0.0325 µM; at TRKA^F589L kinase, 0.0062 µM; in series [4] it was 0.245 µM. In series [2] (from CC(Nc1ccc2ncc(-c3cc(CO)ccn3)n2n1)c1cc(F)cc(F)c1O, 13-membered ring, SOCl2, K2CO3, DCM/DMF, 15.2 mM, 90.0 °C, 1.5 h, 2 steps), this molecule returned a ring closure, isolated yield of 11.2%. Further, the “inhibitory ability compared with TPX-0005” value in series [3] (comparison in words) is “stronger than that of compound TPX-0005”.

For `CC1Nc2ccc3ncc(n3n2)-c2cc(ccn2)COc2ccccc21` (stereo not shown) [Example I-3, (E)-6-methyl-4-oxa-7-aza-1(3,6)-imidazo[1,2-b]pyridazine-2(2,4)-pyridine-5(1,2)-benzenacycloheptaphane], the IC50 was determined as 0.017 µM in series [1]; 0.0059 µM at TRKA^WT kinase; 0.526 µM in series [3]; 0.0071 µM at TRKA^F589L kinase; 0.527 µM in series [4]. Also, the ring closure, isolated yield in series [2] (from CC(Nc1ccc2ncc(-c3cc(CO)ccn3)n2n1)c1ccccc1O, 13-membered ring, SOCl2, K2CO3, DCM/DMF, 11.0 mM, 90.0 °C, 2.0 h, 2 steps) was 39.2%.

Take `Fc1ccc2c(c1)CNc1ccc3ncc(n3n1)-c1cc(ccn1)CO2` [Example I-5, (E)-5^4-fluoro-4-oxa-7-aza-1(3,6)-imidazo[1,2-b]pyridazina-2(2,4)-pyridina-5(1,2)-benzenacycloheptaphane]: the IC50 is 0.00794 µM in series [1]; 0.00136 µM at TRKA^WT kinase; 0.094 µM in series [3]; below 0.005 µM on TRKA^F589L kinase; 0.0915 µM in series [4]. In addition, the ring closure, isolated yield in series [2] (from OCc1ccnc(-c2cnc3ccc(NCc4cc(F)ccc4O)nn23)c1, 13-membered ring, SOCl2, K2CO3, DCM/DMF, 20.3 mM, 90.0 °C, 2.0 h, 2 steps) came to 11.6%.

Turning to `c1ccc2c(c1)CNc1ccc3ncc(n3n1)-c1cc(ccn1)CO2` [Example I-6, (E)-4-oxa-7-aza-1(3,6)-imidazo[1,2-b]pyridazina-2(2,4)-pyridina-5(1,2)-benzenacycloheptaphane], the IC50 was determined as 0.018 µM in series [1]; 0.00276 µM on TRKA^WT kinase; 0.526 µM in series [3]; 0.0061 µM at TRKA^F589L kinase; 0.527 µM in series [4]. This molecule also had a ring closure, isolated yield in series [2] (from OCc1ccnc(-c2cnc3ccc(NCc4ccccc4O)nn23)c1, 13-membered ring, SOCl2, K2CO3, DCM/DMF, 22.8 mM, 90.0 °C, 2.0 h, 2 steps) of 13.6%.

Consider `CC1Nc2ccc3ncc(n3n2)-c2cncc(c2)COc2ccc(F)cc21` (stereo not shown) [Example I-7, (E)-5^4-fluoro-6-methyl-4-oxa-7-aza-1(3,6)-imidazo[1,2-b]pyridazine-2(3,5)-pyridina-5(1,2)-benzenacycloheptaphane], for which the IC50 in series [1] is 0.0028 µM; on TRKA^WT kinase it was below 0.003 µM; in series [3], 0.22 µM; on TRKA^F589L kinase it was below 0.005 µM; in series [4], 0.198 µM. Moreover, the ring closure, isolated yield in series [2] (from CC(Nc1ccc2ncc(-c3cncc(CO)c3)n2n1)c1cc(F)ccc1O, 13-membered ring, SOCl2, K2CO3, DCM/DMF, 15.7 mM, 90.0 °C, 2.0 h, 2 steps) worked out at 22.6%.

As to `c1ccc2c(c1)CNc1ccc3ncc(n3n1)-c1cc(ccn1)CCO2` [Example I-8, (E)-6-oxa-3-aza-2(3,6)-imidazo[1,2-b]pyridazina-1(2,4)-pyridina-5(1,2)-benzenacyclooctaphane], the IC50 in series [1] is 0.0034 µM; at TRKA^WT kinase, 0.00246 µM; in series [3] it was 0.562 µM; at TRKA^F589L kinase, below 0.005 µM; in series [4], 0.562 µM. The same molecule displayed a ring closure, isolated yield in series [2] (from OCCc1ccnc(-c2cnc3ccc(NCc4ccccc4O)nn23)c1, 14-membered ring, PPh3/DIAD, THF, 16.6 mM, 60.0 °C, 2.0 h) of 34%.
